In one assay the target is Helicobacter pylori MTAN (Helicobacter pylori, UniProt Q9ZMY2). As to the kind of experiment: 2AMTA continuous fluorescence kinetic assay with hpMTAN. The assay is classed as biochemical.
The next assay has as its target T1, Human MTAP (Homo sapiens, UniProt Q13126).
T1 sequence (Q13126 1-283): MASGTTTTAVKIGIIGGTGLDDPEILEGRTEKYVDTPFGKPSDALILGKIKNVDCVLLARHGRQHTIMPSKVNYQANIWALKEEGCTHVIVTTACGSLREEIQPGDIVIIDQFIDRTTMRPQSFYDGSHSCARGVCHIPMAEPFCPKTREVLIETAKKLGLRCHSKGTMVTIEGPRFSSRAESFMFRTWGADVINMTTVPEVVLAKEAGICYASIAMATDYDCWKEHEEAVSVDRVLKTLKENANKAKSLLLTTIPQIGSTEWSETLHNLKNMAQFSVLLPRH
Description: 2AMTA continuous fluorescence kinetic assay with hsMTAP. Type of assay: biochemical.

The target of assay [1] is T2, hsMTAP (Homo sapiens, UniProt Q13126).
T2 sequence (Q13126 1-283): T1 sequence (Q13126 1-283)
Description: MTAP pre-steady-state stopped-flow kinetics. The following applies: 10 μM 2AMTA, 5 μM MTAP.

Assay [2] relates to Streptococcus pneumoniae MTAN. Type of assay: biochemical.
The test system of the next assay is Yersinia pestis MTAN. The assay is classed as biochemical.
Another assay concerns the target Vibrio cholerae MTAN (Vibrio cholerae serotype O1, UniProt Q9KPI8). The assay is classed as biochemical. The following applies: enzyme concentration 1 μM, substrate concentration 1 mM.
A further assay concerns ecMTAN. The following applies: substrate MTA, ref [20],[28],[29]; cited from earlier work.
The target of assay [3] is T3, hpMTAN (Helicobacter pylori, UniProt Q9ZMY2).
T3 sequence (Q9ZMY2 1-230): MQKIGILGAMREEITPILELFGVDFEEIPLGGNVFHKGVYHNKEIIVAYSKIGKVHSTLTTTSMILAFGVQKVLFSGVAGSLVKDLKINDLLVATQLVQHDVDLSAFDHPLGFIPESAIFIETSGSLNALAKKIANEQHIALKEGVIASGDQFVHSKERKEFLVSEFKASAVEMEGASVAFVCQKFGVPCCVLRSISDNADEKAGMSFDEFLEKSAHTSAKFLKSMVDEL
Conditions: substrate MTA, ref [20],[28],[29]; cited from earlier work.

For assay [4], the target named is T2, hsMTAP. The following applies: substrate MTA, ref [20],[28],[29]; cited from earlier work.
The subject of assay [5] is Saccharomyces cerevisiae adenine phosphoribosyltransferase (scAPRTase). Description: 2,6-diaminopurine fluorescence assay of scAPRTase. The assay is classed as biochemical. Conditions: 1 mM PRPP.
Assay [6] addresses T2, hsMTAP. Conditions: read-out: Ki∗ literature, ref [21],[22]; cited from earlier work.
The target of assay [7] is T3, hpMTAN. The following applies: read-out: Ki∗ literature, ref [21],[22]; cited from earlier work.
Assay [8] concerns the target T3, hpMTAN. As to the kind of experiment: Ki* by 2AMTA fluorescence-based assay, Morrison fit, hpMTAN. Type of assay: biochemical. Conditions: read-out: Ki∗ measured, 1–3 mM 2AMTA as substrate, slow-onset tight-binding, Morrison equation.
For assay [9], the target named is T2, hsMTAP. Description: Ki* by 2AMTA fluorescence-based assay, Morrison fit, hsMTAP. The following applies: read-out: Ki∗ measured, 1–3 mM 2AMTA as substrate, slow-onset tight-binding, Morrison equation. Type of assay: biochemical.
The mark [10] stands for this setting: substrate 2AMTA, 100 mM potassium phosphate pH 7.4.

Read-outs that look alike come from different tables or passages of the source.

The term Km denotes the concentration of substrate that gives half-maximal velocity. As usually defined, the kcat is the number of substrate molecules converted per active site and unit of time at saturation. By Ki is commonly meant a dissociation constant, usually derived from enzyme kinetics or from competition with a known ligand.

Vibrio cholerae MTAN, sequence (Q9KPI8 whole entry): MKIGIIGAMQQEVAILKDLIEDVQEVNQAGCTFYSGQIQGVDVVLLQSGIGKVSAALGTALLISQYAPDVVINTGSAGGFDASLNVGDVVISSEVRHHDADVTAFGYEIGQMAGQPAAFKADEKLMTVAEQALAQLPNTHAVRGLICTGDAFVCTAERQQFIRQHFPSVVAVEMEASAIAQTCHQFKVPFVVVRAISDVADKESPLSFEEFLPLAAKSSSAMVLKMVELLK

With 2-amino-5′-methylthioadenosine [2AMTA], the “decrease of catalytic efficiency (kcat/KM) with 2AMTA relative to MTA” value at Helicobacter pylori MTAN and at Human MTAP was approximately 10 fold throughout. The Km stood at 3.1 ± 0.5 µM at Helicobacter pylori MTAN (setting [10]), 34 ± 7 µM on Human MTAP (setting [10]) and 11 ± 4.4 µM in the assay with Yersinia pestis MTAN. Besides, the kcat on Helicobacter pylori MTAN (setting [10]) is 7.0 ± 0.4 s⁻¹; on Human MTAP (setting [10]), 1.7 ± 0.2 s⁻¹; in assay [2] (substrate 2AMTA, Streptococcus pneumoniae MTAN, 1 μM enzyme, 1 mM 2AMTA), <10^−5 s^−1; with Yersinia pestis MTAN (substrate 2AMTA, Yersinia pestis MTAN) it was 1.1 ± 0.28 s⁻¹. Also, on hsMTAP [1], the “apparent turnover rate (pre-steady-state)” value is 270 ± 1 s⁻¹. Also, the “hydrolysis of 2AMTA” value in assay [2] (enzyme concentration 1 μM, substrate concentration 1 mM) is reported as “unable to hydrolyze 2AMTA at significant rates”; at Vibrio cholerae MTAN, “unable to hydrolyze 2AMTA at significant rates”.
On to 5′-methylthioadenosine [MTA], for which the Km with ecMTAN is 0.19 ± 0.02 µM; on hpMTAN [3], 0.6 ± 0.3 µM; on hsMTAP [4], 5 ± 1 µM. The results for the kcat in the assay on ecMTAN, at hpMTAN [3] and on hsMTAP [4] were 2.3 ± 0.1 s⁻¹, 12.1 ± 2.3 s⁻¹ and 2.5 ± 0.7 s⁻¹, respectively.
`Nc1nc(N)c2[nH]cnc2n1` [2,6-diaminopurine]: in assay [5], the “fold decreased kcat compared to adenine” value is approximately 400 fold, the “fold increased KM compared to adenine” value is recorded as “approximately 2 fold” and the “kcat/KM reduced by a factor compared to adenine” value was 800 fold.
For `CSC[C@H]1CN(Cc2c[nH]c3c(N)ncnc23)C[C@@H]1O` [MT-DADMe-ImmA, Methylthio-DADMe-Immucillin-A], the Ki on hsMTAP [6] is 90 ± 10 pM; at hpMTAN [7], 89 ± 19 pM; on hpMTAN [8] it was 15 ± 1.4 pM; on hsMTAP [9], 63 ± 10 pM.
Consider `CSCC1NC(c2c[nH]c3c(N)ncnc23)[C@@H](O)[C@H]1O` (stereo partly drawn) [MT-ImmA, Methylthio-Immucillin-A], for which the Ki on hsMTAP [6] was 1000 ± 500 pM; at hpMTAN [7], 40 ± 20 pM; on hpMTAN [8], 66 ± 11 pM; on hsMTAP [9] it was 330 ± 68 pM.
For the compound `Nc1ncnc2c(CN3CC(CSc4ccc(Cl)cc4)[C@H](O)C3)c[nH]c12` (stereo partly drawn) [pCl-PhT-DADMe-ImmA, pCl-PhT-DADMe-Immucillin-A], the Ki on hsMTAP [6] is 10 ± 5 pM; at hpMTAN [7], 570 ± 90 pM; on hpMTAN [8], 360 ± 32 pM; on hsMTAP [9], 47 ± 13 pM.

These data come from paper PMC5434977 (Analytical chemistry, 2016).
